Experimental data reported in patent publication US4820695A, “C-20-dihydro-deoxy-(cyclic amino)-derivatives of macrolide antibiotics” (priority 1987, dated 1989).
≈ marks a conversion by molar mass, not a printed value. Where “and” joins values, the source holds several entries; their conditions need not be identical. Equal entries are not always repeated. Where two headings read alike, the source gives them in different places.

How the values were obtained:
Staphyloccus aureus X1.1 = assay: MIC, standard agar-dilution assay (Table IX); assay type: cell-based, Staphylococcus aureus; conditions: Staphylococcus aureus, read-out: MIC
[1] = test system: Staphylococcus aureus V41; assay: MIC, standard agar-dilution assay (Table IX); assay type: cell-based; conditions: Staphylococcus aureus V41, Penicillin-resistant strain, read-out: MIC
[2] = test system: Staphylococcus aureus X400; assay: MIC, standard agar-dilution assay (Table IX); assay type: cell-based; conditions: Staphylococcus aureus X400, Methicillin-resistant strain, read-out: MIC
[3] = test system: Staphylococcus aureus S13E; assay: MIC, standard agar-dilution assay (Table IX); assay type: cell-based; conditions: Staphylococcus aureus, S13E
[4] = test system: Staphylococcus epidermidis EPI1; assay: MIC, standard agar-dilution assay (Table IX); assay type: cell-based; conditions: Staphylococcus epidermidis EPI1; agar-dilution; read-out: MIC
[5] = test system: Staphylococcus epidermidis 222; assay: MIC, standard agar-dilution assay (Table IX); assay type: cell-based; conditions: read-out: MIC
[6] = test system: Streptococcus pyogenes C203; assay: MIC, standard agar-dilution assay (Table IX); assay type: cell-based; conditions: read-out: MIC
[7] = test system: Streptococcus pneumoniae Park I; assay: MIC, standard agar-dilution assay (Table IX); assay type: cell-based; conditions: Streptococcus pneumoniae Park I; agar-dilution; read-out: MIC
[8] = test system: Streptococcus Group D X66; assay: MIC, standard agar-dilution assay (Table IX); assay type: cell-based; conditions: read-out: MIC
[9] = test system: Streptococcus Group D 2041; assay: MIC, standard agar-dilution assay (Table IX); assay type: cell-based; conditions: GROUPD2041, read-out: MIC
[10] = test system: Haemophilus influenzae C.L.; assay: MIC, standard agar-dilution assay (Table IX); assay type: cell-based; conditions: Ampicillin-sensitive strain, read-out: MIC
[11] = test system: Haemophilus influenzae 76; assay: MIC, standard agar-dilution assay (Table IX); assay type: cell-based; conditions: Haemophilus influenzae 76, Ampicillin-resistant strain, read-out: MIC
Escherichia coli N10 = assay: MIC, standard agar-dilution assay (Table IX); assay type: cell-based; conditions: read-out: MIC
Escherichia coli EC14 = assay: MIC, standard agar-dilution assay (Table IX); assay type: cell-based; conditions: read-out: MIC
Escherichia coli TEM = assay: MIC, standard agar-dilution assay (Table IX); assay type: cell-based; conditions: read-out: MIC
Klebsiella X26 = assay: MIC, standard agar-dilution assay (Table IX); assay type: cell-based; conditions: read-out: MIC
[12] = test system: Mycoplasma gallisepticum 29C; assay: MIC, broth-dilution microtiter test (Table X); assay type: cell-based; conditions: Mycoplasmoides gallisepticum, read-out: MIC
Text: (§1) The MIC's in Table X were obtained using conventional broth-dilution microtiter tests.

[13] = test system: Mycoplasma hyopneumoniae S5972; assay: MIC, broth-dilution microtiter test (Table X); assay type: cell-based; conditions: Mesomycoplasma hyopneumoniae, read-out: MIC
Text: as §1

Mycoplasma hyorhinis 29E = assay: MIC, broth-dilution microtiter test (Table X); assay type: cell-based; conditions: read-out: MIC
Text: as §1

Mycoplasma synoviae 40A = assay: MIC, broth-dilution microtiter test (Table X); assay type: cell-based; conditions: Mycoplasmopsis synoviae, read-out: MIC
Text: as §1

[14] = test system: Pasteurella hemolytica 22C; assay: MIC, broth-dilution microtiter test (Table X); assay type: cell-based; conditions: read-out: MIC
Text: as §1

[15] = test system: Pasteurella multocida 17E; assay: MIC, broth-dilution microtiter test (Table X); assay type: cell-based; conditions: Bovine isolate, read-out: MIC
Text: as §1

[16] = test system: Pasteurella multocida 60A; assay: MIC, broth-dilution microtiter test (Table X); assay type: cell-based; conditions: Avian isolate, read-out: MIC
Text: as §1

[17] = test system: Staphylococcus aureus 19C; assay: MIC, broth-dilution microtiter test (Table X); assay type: cell-based
Text: as §1

Streptococcus sp. 19F = assay: MIC, broth-dilution microtiter test (Table X); assay type: cell-based; conditions: read-out: MIC
Text: as §1

[18] = test system: Streptococcus pyogenes C203; assay: ED50 in mice experimentally infected with S. pyogenes C203 (Table XI); assay type: in vivo; conditions: Streptococcus pyogenes, doses given 1 and 4 hours postinfection, read-out: ED50
Summary of the method: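 Protective ED50 (mg/kg × 2) was determined as the dose sparing half the animals. Test compound was given twice, at 1 and 4 hours after experimental S. pyogenes C203 infection of mice.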

Pasteurella multocida [19] = assay: Pasteurella infection in one-day-old chicks, subcutaneous administration (Table XII); assay type: in vivo; conditions: Administered subcutaneously, 30 mg/kg × 2, 1 and 4 hours post-challenge
Summary of the method: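 Treatment was 30 mg/kg s.c., given twice (1 and 4 h after infection). The infection itself was induced in day-old chicks by s.c. injection of 0.1 ml of avian Pasteurella multocida culture (20-h tryptose broth, diluted 10^-4).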

Pasteurella multocida [20] = assay: Pasteurella infection in one-day-old chicks, medicated drinking water (Table XIII); assay type: in vivo; conditions: Administered in the available drinking water at 2 g/gal
Summary of the method: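 Oral dosing was by medicated drinking water (2 g/gal), offered from 4–20 h pre-infection and through a 3-day observation period. The chicks, one day old, were infected s.c. with 0.1 ml of a 10^-4-diluted, 20-h tryptose broth culture of avian Pasteurella multocida.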

[21] = Blood and tissue levels after a single injection; assay type: in vivo
Text: A special advantage of this invention is that certain of the compounds are effective when administered as a single injection.

## CCC1OC(=O)CC(O)C(C)C(OC2OC(C)C(O)C(N(C)C)C2O)C(CCN2C[C@H](C)C[C@H](C)C2)CC(C)C(=O)C=CC(C)=CC1COC1OC(C)C(O)C(OC)C1OC (stereo partly drawn) [Compound D34, 20-DH-DO-20-(cis-3,5-dimethylpiperidine-1-yl)desmycosin]
Staphyloccus aureus X1.1
  MIC: 1 µg/mL (≈ 1.15 µM)
[1]
  MIC: 1 µg/mL (≈ 1.15 µM)
[2]
  MIC: 1 µg/mL (≈ 1.15 µM)
[3]
  MIC: 0.5 µg/mL (≈ 0.575 µM)
[4]
  MIC: 0.5 µg/mL (≈ 0.575 µM)
[5]
  MIC: 0.25 µg/mL (≈ 0.288 µM)
[6]
  MIC: 0.5 µg/mL (≈ 0.575 µM)
[7]
  MIC: 2 µg/mL (≈ 2.3 µM)
[8]
  MIC: 4 µg/mL (≈ 4.6 µM)
[9]
  MIC: 8 µg/mL (≈ 9.2 µM)
[10]
  MIC: 16 µg/mL (≈ 18.4 µM)
[11]
  MIC: 4 µg/mL (≈ 4.6 µM)
Escherichia coli N10
  MIC: 128 µg/mL (≈ 147 µM)
Escherichia coli EC14
  MIC: 128 µg/mL (≈ 147 µM)
Escherichia coli TEM
  MIC: 32 µg/mL (≈ 36.8 µM)
Klebsiella X26
  MIC: 64 µg/mL (≈ 73.6 µM)
[12]
  MIC: 0.195 µg/mL (≈ 0.224 µM)
[13]
  MIC: 0.78 µg/mL (≈ 0.897 µM)
Mycoplasma hyorhinis 29E
  MIC: 12.5 µg/mL (≈ 14.4 µM)
Mycoplasma synoviae 40A
  MIC: 0.78 µg/mL (≈ 0.897 µM)
[14]
  MIC: 6.25 µg/mL (≈ 7.19 µM)
[15]
  MIC: 12.5 µg/mL (≈ 14.4 µM)
[16]
  MIC: 12.5 µg/mL (≈ 14.4 µM)
[17]
  MIC: 3.12 µg/mL (≈ 3.59 µM)
Streptococcus sp. 19F
  MIC: 3.12 µg/mL (≈ 3.59 µM)
[18]; C203, Oral
  ED50: 7.98 mg/kg
[18]; C203, sc, Subcutaneous
  ED50: < 0.625 mg/kg
Pasteurella multocida [19]
  Number of Deaths/Number Treated: 3/10
Pasteurella multocida [20]
  Number of Deaths/Number Treated: 3/10 and 0/10 and 1/10 and 6/10
[21]
  measurable blood and tissue levels of the drug: prolonged measurable blood and tissue levels of the drug for as long as seven days
